Patent US12325709B2, “Cannabinoid derivatives” (CANOPY GROWTH CORPORATION, priority 2019, dated 2025)

Key:
[1] = biological target: T1, human CB2 receptor (Homo sapiens, UniProt P34972); assay: CB2 radioligand competitive binding assay ([3H]CP 55,940 displacement); conditions: for Selectivity CB2: fold difference in binding between CB1 and CB2, shown in column of receptor with higher affinity, 1.00 in both = about the same affinity
T1 construct: host or cells: CHO-K1 (Chinese hamster ovary) cells, stably transfected; membranes prepared in house
Protocol: Compounds of the present disclosure were tested for CB1 receptor binding affinity and for CB2 receptor binding affinity. As used herein, “binding affinity” is represented by the IC50 value, which was experimentally determined as described herein. The lower the IC50 value the higher the binding affinity.
The membranes were prepared from CHO-K1 (Chinese hamster ovary) cells stably transfected with the human CB2 receptor (Cat. #ES-111-C; Perkin Elmer, Boston, MA). The cells were grown adherently and maintained in Ham's F12 medium containing 10% fetal bovine serum (FBS), penicillin, streptomycin and geneticin (G418) at 37° C. in a humid atmosphere of 5% CO2 following the manufacturer's instructions.
For membrane preparation the cells were washed with PBS and scraped off the plates in cold homogenization buffer (25 mM HEPES (pH 7.4), 2 mM EDTA) containing protease inhibitor cocktail (Sigma Cat. #P8340). The cell suspension was homogenized with a Pro-PK-01200D Polytron Homogenizer (Pro Scientific) and then centrifuged for 30 min at 120,000×g. The supernatant was discarded and the pellet was re-suspended in the homogenization buffer and stored at −80° C. until the time of use.
In this experiment, 3H radiolabeled CP 55,940, i.e. [3H]CP 55,940 (Perkin Elmer, Boston, MA), was used as a radioligand for the CB2 receptor to determine the binding affinity of compounds for the CB2 receptor (Scheme 3; above).
The competition binding experiments (single dose and dose-response) were performed by incubating 0.6 nM of [3H]CP55,940 (specific activity 101 Ci/mmol, Perkin Elmer) and different concentrations of compounds disclosed herein with membranes prepared as above from CHO-K1 cells expressing human CB2 receptor (1 μg of protein/well), 50 mM Tris-HCl (pH 7.4), 5 mM MgCl2, 1 mM CaCl2, and 2 mg/mL BSA.
For the dose-response experiments the test compounds were sequentially diluted to provide the desired concentration range for the IC50 determination. In each case the compounds were pre-incubated with the membrane for 20 min, before adding the radioligand.
After incubation with the radioligand for 60 min at 37° C., the incubation was terminated by rapid filtration of assay mixture through MultiScreen®HTS^+ 96-well filter plates (Millipore, Cat. #MSFCNXB), pre-soaked for 60 min with 50 mM Tris-HCl (pH 7.4) containing 0.33% polyethylenimine (PEI). The nonspecific binding (NSB) was determined in the presence of 10 μM unlabelled CP55,940. After drying the filter plate at 50° C. for at least 60 min, the filter-bound radioactivity was determined by scintillation spectrometry using the 1450 MicroBeta Plate Counter (Perkin Elmer, Boston, MA).

[2] = biological target: T2, human CB1 receptor (Homo sapiens, UniProt P21554); assay: CB1 radioligand competitive binding assay ([3H]CP 55,940 displacement)
T2 construct: host or cells: CHO-K1 (Chinese hamster ovary) cells, stably transfected; membranes prepared in house
T2 sequence (P21554 whole entry): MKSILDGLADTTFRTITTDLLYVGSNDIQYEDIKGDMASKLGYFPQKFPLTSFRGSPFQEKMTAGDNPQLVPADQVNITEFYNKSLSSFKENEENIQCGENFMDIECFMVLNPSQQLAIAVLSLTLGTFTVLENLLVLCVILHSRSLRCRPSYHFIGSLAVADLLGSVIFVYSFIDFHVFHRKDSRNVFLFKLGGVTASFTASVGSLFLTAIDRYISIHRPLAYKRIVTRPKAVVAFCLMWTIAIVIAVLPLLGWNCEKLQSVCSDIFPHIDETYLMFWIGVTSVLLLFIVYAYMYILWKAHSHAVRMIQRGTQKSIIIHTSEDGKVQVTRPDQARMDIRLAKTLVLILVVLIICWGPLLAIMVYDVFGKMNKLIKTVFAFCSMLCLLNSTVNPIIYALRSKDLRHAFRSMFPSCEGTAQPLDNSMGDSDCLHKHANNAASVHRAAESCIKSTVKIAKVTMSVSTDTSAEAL

T1 sequence (P34972 whole entry): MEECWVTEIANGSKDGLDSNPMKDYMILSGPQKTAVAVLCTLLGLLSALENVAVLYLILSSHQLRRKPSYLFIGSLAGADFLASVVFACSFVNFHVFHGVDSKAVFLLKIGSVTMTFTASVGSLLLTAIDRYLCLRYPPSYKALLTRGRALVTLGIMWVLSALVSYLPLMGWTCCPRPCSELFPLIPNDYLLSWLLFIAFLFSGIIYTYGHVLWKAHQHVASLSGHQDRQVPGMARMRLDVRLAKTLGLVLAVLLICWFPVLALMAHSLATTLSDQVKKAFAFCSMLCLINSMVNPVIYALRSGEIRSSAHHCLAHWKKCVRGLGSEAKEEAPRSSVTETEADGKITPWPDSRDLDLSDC

Compound	IC50 [1]	Selectivity CB2 [1]	IC50 [2]
CCCCCc1cc(O)c(-c2cccc(C)c2)c(O)c1CN(C)C(=O)OC [Compound 59a, methyl ((2,6-dihydroxy-3′-methyl-4-pentyl-[1,1′-biphenyl]-3-yl)methyl)(methyl)carbamate]	< 100 nM	10.91 fold	100 to 990 nM
CCCCCc1cc(O)c(C2C=C(C)CCC2)c(O)c1CN(C)C(=O)OC (stereo not drawn) [Compound 59c, methyl ((2,6-dihydroxy-5′-methyl-4-pentyl-1′,2′,3′,4′-tetrahydro-[1,1′-biphenyl]-3-yl)methyl)(methyl)carbamate]	< 100 nM	9.26 fold	100 to 990 nM
C=C(C)[C@@H]1CCC(C)=C[C@H]1c1c(O)cc(CCC)c(C(=O)NC)c1O [Compound 96d, 2,6-dihydroxy-N,5′-dimethyl-2′-(prop-1-en-2-yl)-4-propyl-1′,2′,3′,4′-tetrahydro-[1,1′-biphenyl]-3-carboxamide]	> 5000 nM	2.59 fold	> 5000 nM
